Experimental data: patent US7514417B2 (CV Therapeutics, Inc., priority 2005, dated 2009)

Columns and labels:
[1] = cited from earlier work
A1 adenosine receptor = molecular target: T1, A1 adenosine receptor (Mesocricetus auratus, UniProt A0A1U8BVR4); experiment: Competitive radioligand binding assay, A1 binding affinity, DDT1 cell membranes; set-up: species or system hamster; details: membranes of DDT cells, tritiated radioligand (3H-CPA) 1.5 nM, 23° C. 90 minutes
T1 construct: A1 adenosine receptor sites on the membranes of DDT cells; endogenous in cells; host or cells: DDT cells (DDT1, hamster vas deferens smooth muscle cell line), membrane preparation
T1 sequence (A0A1U8BVR4 1-326): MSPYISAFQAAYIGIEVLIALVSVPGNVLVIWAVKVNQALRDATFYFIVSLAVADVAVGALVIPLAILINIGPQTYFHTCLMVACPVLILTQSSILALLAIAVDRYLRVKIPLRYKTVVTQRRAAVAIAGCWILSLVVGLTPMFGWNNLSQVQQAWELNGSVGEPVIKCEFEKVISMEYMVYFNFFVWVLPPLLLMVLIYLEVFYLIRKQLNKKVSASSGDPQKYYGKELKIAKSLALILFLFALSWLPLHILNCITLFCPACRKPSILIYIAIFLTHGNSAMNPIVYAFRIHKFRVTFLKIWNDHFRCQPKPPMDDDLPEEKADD
Description: DDT cells (hamster vas deferens smooth muscle cell line) were grown as monolayers in petri dishes using Dulbecco's Modified Eagle's Medium (DMEM) containing 2.5 μg mL^−1 amphotericin B, 100 U mL^−1 penicillin G, 0.1 mg mL^−1 streptomycin sulfate and 5% fetal bovine serum in a humidified atmosphere of 95% air and 5% CO2. Cells were subcultured twice weekly by dispersion in Hank's Balanced Salt Solution (HBSS) without the divalent cations and containing 1 mM EDTA. The cells were then seeded in growth medium at a density of 1.2×10^5 cells per plate and experiments were performed 4 days later at approximately one day preconfluence.
Attached cells were washed twice with HBSS (2×10 mL), scraped free of the plate with the aid of a rubber policeman in 5 mL of 50 mM Tris-HCl buffer pH 7.4 at 4° C. and the suspension was homogenized for 10 s. The suspension was then centrifuged at 27,000×g for 10 min. The pellet was resuspended in homogenization buffer by vortexing and centrifuged again as described above. The final pellet was resuspended in 1 vol of 50 mM Tris-HCl buffer pH 7.4 containing 5 mM MgCl2 for A1 adenosine receptor assays. For the [^35S]GTPγS binding assay the final pellet was resuspended in 50 mM Tris-HCl pH 7.4 containing 5 mM MgCl2, 100 mM NaCl and 1 mM dithiothreitol. This membrane suspension was then placed in liquid nitrogen for 10 min and stored at −80° C. Aliquots of the membrane suspension were later thawed and used for assays. The protein content was determined with a Bradford™ Assay Kit using bovine serum albumin as standard.
Briefly, 50-70 ug of membrane protein were incubated in a mixture containing 2U/ml adenosine deaminase and 10 μM GTP-γS in 50 mM Tris-HCl buffer, pH 7.4, with 1 mM EDTA in glass tubes. Stock solutions of the compounds of the invention were serially diluted (10^−10M to 10^−4M) in Tris buffer and added to the incubation mixture. […] After incubation at 23° C. 90 minutes, the reaction was stopped by filtration on a Brandel MR24 cell harvester and washing with ice-cold Tris-EDTA buffer (three times, approximate volume 10 ml/wash) over Whatman GF/B filters (presoaked for 1 h in 0.3% polyethylenimine to reduce non-specific binding). Filters were transferred to scintillation vials and 5 ml of Scintisafe (VWR, Brisbane, Calif.) was added. The amount of radioactivity retained on the filters was determined by liquid scintillation spectrometry.

## Nc1ncnc2c1ncn2[C@@H]1O[C@H](CO)[C@@H](O)[C@H]1O [adenosine]
[1]
  half-life: less than 10 sec

## O=C(NCc1ccc(F)cc1)c1cnn(-c2nc(N[C@@H]3CCOC3)c3ncn([C@@H]4O[C@H](CO)[C@@H](O)[C@H]4O)c3n2)c1 [XIX, (1-{6-[((3R)oxolan-3-yl)amino]-9-[(4S,2R,3R,5R)-3,4-dihydroxy-5-(hydroxymethyl)oxolan-2-yl]purin-2-yl}pyrazol-4-yl)-N-[(4-fluorophenyl)methyl] carboxamide]
A1 adenosine receptor
  Ki: 43 nM

## CCCNC(=O)c1cnn(-c2nc(NCc3ccccc3)c3ncn([C@@H]4O[C@H](CO)[C@@H](O)[C@H]4O)c3n2)c1 [XIV, (1-{9-[(4S,2R,3R,5R)-3,4-dihydroxy-5-(hydroxymethyl)oxolan-2-yl]-6-[benzylamino]purin-2-yl}pyrazol-4-yl)-N-propylcarboxamide]
A1 adenosine receptor
  Ki: 1090 nM
